Each structure is given as a SMILES string. ≈ marks a conversion by molar mass, not a printed value.

Details in one series: not given
For `NC(=O)c1cc(Cl)cc(Cl)c1N`, the solubility worked out at 8.29 mM (≈ 1700 µg/mL).

The molecule `ClCCCCCl` yielded a solubility of 120 mM (≈ 15300 µg/mL). Compared with the last molecule, the solubility is about 14-fold higher.

As for `CC(C)(C)NC[C@H](O)COc1ccccc1C1CCCC1`, the solubility amounted to 24 mM (≈ 7000 µg/mL).

Molecule `Cc1cc(NS(=O)(=O)c2ccc(N)cc2)nc(C)n1` displayed a solubility of 5.79 mM (≈ 1610 µg/mL).

Take `c1ccc2c(c1)-c1cccc3c1c-2cc1ccccc13`: the solubility was 5.94e-06 mM (≈ 0.0015 µg/mL). In other words, the single-digit nanomolar range.

On to `O=C(O)c1cc(Cl)cc(Cl)c1`, for which the solubility was determined as 0.77 mM (≈ 147 µg/mL).

Consider `OC[C@H]1O[C@H](OC[C@H]2O[C@H](O[C@]3(CO)O[C@H](CO)[C@@H](O)[C@@H]3O)[C@H](O)[C@@H](O)[C@@H]2O)[C@H](O)[C@@H](O)[C@H]1O`, for which the solubility was found to be 402 mM (≈ 203000 µg/mL). This solubility is about 520-fold higher than that of the molecule before.

The series is the same for the next values; noted with them: 20 °C.
Molecule `O=c1nc[nH]c2nccnc12` came in with a solubility of 33.8 mM (≈ 5000 µg/mL).

In turn, `Clc1ccc(-c2ccccc2Cl)cc1Cl` came in with a solubility of 0.000516 mM (≈ 0.133 µg/mL). Compared with the last molecule, the solubility is about 66000-fold lower.

With `Clc1ccc(-c2cc(Cl)c(Cl)cc2Cl)cc1Cl`, the solubility amounted to 4.1e-05 mM (≈ 0.0134 µg/mL).

Consider `Cc1cc(Cl)ccc1N=CN(C)C`, for which the solubility turned out to be 1.37 mM (≈ 270 µg/mL).

In turn, `O=[N+]([O-])c1ccc(Cl)c(Cl)c1Cl` yielded a solubility of 0.115 mM (≈ 26 µg/mL).

As to `Clc1cccc(-c2c(Cl)cccc2Cl)c1`, the solubility amounted to 0.00015 mM (≈ 0.0386 µg/mL).

Regarding `CCNc1nc(NC(C)(C)C)nc(OC)n1`, the solubility worked out at 0.577 mM (≈ 130 µg/mL).

`C=CC1CN2CCC1CC2C(=O)c1ccnc2ccc(OC)cc12` (centres undefined) gave a solubility of 0.0093 mM (≈ 3 µg/mL).

With `COc1ccc(C=O)c(C(=O)O)c1OC`, the solubility stood at 11.9 mM (≈ 2500 µg/mL).

For the molecule `CC(C)I`, the solubility stood at 8.24 mM (≈ 1400 µg/mL).

Take `N[C@@H](Cc1ccc(O)c(O)c1)C(=O)O`: the solubility was 25.4 mM (≈ 5000 µg/mL).

`Clc1ccc(-c2c(Cl)cc(Cl)c(Cl)c2Cl)c(Cl)c1`: the solubility is 3.37e-05 mM (≈ 0.0122 µg/mL). This counts as double-digit nanomolar.

On to `C=CC(=O)Oc1c(Br)cc(Cl)c2cccnc12`, for which the solubility stood at 0.0192 mM (≈ 6 µg/mL).

As for `Oc1cccc2ncccc12`, the solubility turned out to be 2.87 mM (≈ 417 µg/mL).

The molecule `CC(C)C1=CC2=CC[C@@H]3[C@](C)(CCC[C@@]3(C)C(=O)O)[C@H]2CC1` displayed a solubility of 0.16 mM (≈ 48.4 µg/mL). Against the preceding molecule, the solubility is about 18-fold lower.

As for `Cc1ccccc1OCC(O)CO` (centres undefined), the solubility was determined as 64.8 mM (≈ 11800 µg/mL). Compared with the last molecule, the solubility is about 400-fold higher.

The molecule `COC(=O)c1cccnc1` came in with a solubility of 347 mM (≈ 47600 µg/mL).

Consider `CCC(Cl)(Cl)[N+](=O)[O-]`, for which the solubility was 31.7 mM (≈ 5000 µg/mL).

Molecule `Oc1cccnc1` showed a solubility of 350 mM (≈ 33300 µg/mL). Compared with the last molecule, the solubility is about 11-fold higher.

In the case of `C=C(C(=O)O)c1ccccc1`, the solubility amounted to 8.77 mM (≈ 1300 µg/mL).

In turn, `CN=C=S` had a solubility of 104 mM (≈ 7600 µg/mL).

With `CCOC(=O)C(c1c(O)c2ccccc2oc1=O)c1c(O)c2ccccc2oc1=O`, the solubility turned out to be 0.375 mM (≈ 153 µg/mL). Compared with the last molecule, the solubility is about 280-fold lower.

`COC(=O)c1cc(Cl)cc(N)c1Cl` yielded a solubility of 0.545 mM (≈ 120 µg/mL).

Molecule `CCOP(=S)(OCC)Oc1ccc(S(C)=O)cc1` (centres undefined) came in with a solubility of 6.49 mM (≈ 2000 µg/mL).

For `CC(=NO)C(C)=NO`, the solubility was 5.17 mM (≈ 600 µg/mL).

In turn, `Cc1nnc(-c2ccccc2)c(=O)n1N` returned a solubility of 8.9 mM (≈ 1800 µg/mL).

As to `CC(C)Cl`, the solubility stood at 39.5 mM (≈ 3100 µg/mL).

`c1ccc2c(c1)ccc1c2ccc2c3ccccc3ccc21` displayed a solubility of 1.55e-05 mM (≈ 0.00431 µg/mL).

`OC[C@H]1O[C@@H](n2cnc3c(O)ncnc32)[C@H](O)[C@@H]1O` gave a solubility of 58.9 mM (≈ 15800 µg/mL).

The molecule `Clc1c(Cl)c(Cl)c2c(c1Cl)Oc1c(Cl)c(Cl)c(Cl)c(Cl)c1O2` had a solubility of 8.7e-10 mM (≈ 4e-07 µg/mL).

`NCCS(=O)(=O)O` yielded a solubility of 645 mM (≈ 80700 µg/mL).

Molecule `CCSc1nc(NC(C)C)nc(NC(C)C)n1` showed a solubility of 0.0626 mM (≈ 16 µg/mL).

Staying with this series, now noted: 21 °C.
`Brc1cccc2ccccc12` had a solubility of 0.045 mM (≈ 9.32 µg/mL). That is a double-digit micromolar value.

Molecule `O=C(O)CCCCCCCCCCCCC(=O)O` displayed a solubility of 0.774 mM (≈ 200 µg/mL).

The molecule `C=C1c2cccc(O)c2C(=O)C2=C(O)[C@]3(O)C(=O)C(C(N)=O)=C(O)[C@@H](N(C)C)[C@@H]3[C@@H](O)[C@H]12` had a solubility of 17.1 mM (≈ 7550 µg/mL).

Still in this series, the particulars now being: 22 °C.
Molecule `CC(=O)c1ccc(O)cc1` registered a solubility of 72.7 mM (≈ 9900 µg/mL).

For the molecule `CCOP(=S)(OCC)N1C(=O)c2ccccc2C1=O`, the solubility came to 0.444 mM (≈ 133 µg/mL). This solubility lies about 160-fold lower than the previous one.

The molecule `OCc1ccccc1O` returned a solubility of 507 mM (≈ 63000 µg/mL).

Regarding `O=C(O)[C@@H](O)[C@H](O)[C@H](O)[C@@H](O)C(=O)O`, the solubility turned out to be 229 mM (≈ 48000 µg/mL).

On to `OC[C@@H](O)[C@@H](O)CO`, for which the solubility stood at 4990 mM (≈ 610000 µg/mL).

`Cc1cc(S(=O)(=O)c2ccccc2)ccc1NS(=O)(=O)C(F)(F)F`: the solubility is 0.158 mM (≈ 60 µg/mL).

Still in this series, the particulars now being: 23 °C.
Take `O=C(O)[C@@H](CO)c1ccccc1`: the solubility is 119 mM (≈ 19800 µg/mL).

The same series, now with this note: 24 °C.
In turn, `CNCCCN1c2ccccc2CCc2ccccc21` came in with a solubility of 0.22 mM (≈ 58.6 µg/mL).

In turn, `O=C1CN(N=Cc2ccc([N+](=O)[O-])o2)C(=O)N1` returned a solubility of 0.334 mM (≈ 79.5 µg/mL).

Consider `O=C(O)c1ccc(O)c(C(=O)O)c1`, for which the solubility amounted to 1.65 mM (≈ 300 µg/mL).

The series is the same for the next values; noted with them: 25 °C.
Regarding `CCC1NC(=O)c2cc(S(N)(=O)=O)c(Cl)cc2N1` (centres undefined), the solubility was determined as 0.518 mM (≈ 150 µg/mL).

`C=CC1CC=CCC1` (centres undefined) had a solubility of 0.462 mM (≈ 50 µg/mL).

The molecule `COc1c2occc2c(OC)c2c(=O)cc(C)oc12` displayed a solubility of 4 mM (≈ 1040 µg/mL).

`CN(C)C(=O)N[C@@H]1C[C@@H]2C[C@H]1[C@@H]1CCC[C@H]21` yielded a solubility of 0.675 mM (≈ 150 µg/mL).

Take `CCC(C)Cl` (centres undefined): the solubility turned out to be 10.8 mM (≈ 1000 µg/mL).

With `CCC[C@@H](O)CC`, the solubility came to 158 mM (≈ 16100 µg/mL). Against the preceding molecule, the solubility is about 15-fold higher.

In turn, `Ic1ccc(I)cc1` showed a solubility of 0.00424 mM (≈ 1.4 µg/mL).

For the molecule `c1cc2ccc3ccc4ccc5cccc6c(c1)c2c3c4c56`, the solubility was determined as 9.41e-07 mM (≈ 0.00026 µg/mL).

On to `O=C(O)COc1ccc(Cl)cc1`, for which the solubility came to 5.13 mM (≈ 957 µg/mL). This lies in the millimolar range.

Consider `CCC(N)C(=O)O` (centres undefined), for which the solubility amounted to 2050 mM (≈ 211000 µg/mL).

`COP(=O)(OC)OC` had a solubility of 3570 mM (≈ 500000 µg/mL).

With `CC(C)[C@@H](N)C(=O)O` (racemic), the solubility worked out at 563 mM (≈ 66000 µg/mL). Against the preceding molecule, the solubility is about 6.3-fold lower.

By solubility is commonly meant the dissolved amount per volume that the medium holds. High values mean a readily soluble substance, low ones a poorly soluble substance.

The values are drawn from the OPERA property sets (Mansouri et al. 2018).
